Holding throughout (format): in vivo
Data set [1] deals with Monochoria vaginalis. Nature of the data set: Test Example 1: herbicidal activity, application before weed generation in submerged conditions (symbol C). Conditions: application herbicide amount 320 g/ha. Summed up:
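Scores run 0 to 5 by herbicidal ratio, with 5 meaning 90% or more and 0 meaning 5% or lower, read 3 weeks after treatment. Compound was applied as a diluted emulsion to the water surface of submerged alluvial-soil pots on the day weed seeds were sown.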

The test system of data set [2] is Monochoria vaginalis. Briefly: Test Example 2: herbicidal activity, application during weed generation in submerged conditions (symbol C). The settings on record: Table 23; application herbicide amount 320 g/ha; grade 0-5 by criteria of Test Example 1. The essentials:
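Seeds sown in flooded alluvial soil (4 cm water) were grown in a 25-30° C greenhouse. At the one- to two-leaf stage, diluted emulsion of compound was applied to the water surface at a predetermined rate. Effect was scored 3 weeks later.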

Data set [3] concerns directly sowed rice plant. Nature of the data set: Test Example 3: effect on crop by foliage application, Wagner pot (symbol b). The settings on record: application herbicide amount 320 g/ha. Summed up:
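Greenhouse culture at 25–30 °C of seeded rice, Cyperus difformis, Leptochloa chinensis and Echinochloa crus-galli var. crus-galli, in alluvial soil held under 0.1–0.5 cm of water in a Wagner pot.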

Another data set deals with Setaria viridis. Briefly: Test Example 4: herbicidal effect by soil treatment (symbol G). Summed up: (§1)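 Seeds were sown in sterilized diluvial soil, covered with about 1.5 cm of soil, and the soil surface was sprayed with a water-diluted emulsion of the compound at a predetermined rate. Plants grew in a greenhouse at 25° C. to 30° C.; effects were scored visually 3 weeks after application.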

The test system of a further data set is Avena fatua. Nature of the data set: Test Example 4: herbicidal effect by soil treatment (symbol I). The essentials: as §1
The subject of a further data set is Chenopodium album. Nature of the data set: Test Example 4: herbicidal effect by soil treatment (symbol O). The essentials: as §1
In a further data set the test system is beet. Nature of the data set: Test Example 4: effect on crop by soil treatment (symbol f). The settings on record: for f: beet, effect on crop grade: application herbicide amount 320 g/ha; for f: beet, effect grade on crop: 320 g/ha. Summed up: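 Greenhouse culture at 25° C. to 30° C. followed sowing of seed in spots on sterilized diluvial soil with a soil cover close to 1.5 cm thick.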

Data set [4] deals with Echinochloa crus-galli var. crus-galli. Briefly: Test Example 5: herbicidal effect by foliage application, plastic box (symbol H). Conditions: 320 g/ha, 3 weeks after application. Summed up:
(§2)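 After sowing into sterilized diluvial soil and growing two weeks under glass at 25° C. to 30° C., seedlings receive a uniform foliar spray of diluted emulsion. Damage is judged visually three weeks on.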

A further data set has as its system Apera spica-venti. Briefly: Test Example 5: herbicidal effect by foliage application, plastic box (symbol L). The settings on record: 320 g/ha, 3 weeks after application. The essentials: as §2
Another data set relates to Abutilon theophrasti. Nature of the data set: Test Example 5: herbicidal effect by foliage application, plastic box (symbol M). The settings on record: 320 g/ha, 3 weeks after application. Summed up:
as §2

The subject of a further data set is corn. Briefly: Test Example 5: effect on crop by foliage application, plastic box (symbol c). Conditions: 320 g/ha, 3 weeks after application. Summed up: (§3)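 Crop and weed seeds sown in spots in sterilized diluvial soil in plastic boxes and covered with about 1.5 cm soil. Plants raised in a greenhouse at 25° C. to 30° C. for foliar application.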
The next data set relates to soybean. Briefly: Test Example 5: effect on crop by foliage application, plastic box (symbol d). The settings on record: 320 g/ha, 3 weeks after application. Summed up:
as §3

The test system of another data set is rapeseed. Briefly: Test Example 5: effect on crop by foliage application, plastic box (symbol g). Conditions: 320 g/ha, 3 weeks after application. Summed up:
as §3

Another data set concerns Veronica persica. Briefly: Test Example 4: herbicidal effect by soil treatment (symbol R). The essentials: as §1
The mark [5] stands for this setting: application herbicide amount 320 g/ha.

Regarding `CCc1cc(-n2cc(Cl)cn2)cc(C)c1C1=C(O)CC(CC(C)=NOC)C1=O` (mixture of isomers) [6-005], the “Herbicidal effect grade, C: Monochoria vaginalis” value (shortened to “Herbicidal effect grade, C”) in the data set on Monochoria vaginalis [1] was 3 (Herbicidal ratio of 40% or higher and lower than 70%); in the data set with Monochoria vaginalis [2], 3 (Herbicidal ratio of 40% or higher and lower than 70%). Further, in [3], the “effect on crop b (directly sowed rice plant), grade 0-5” value (from here on “effect on crop b”) was 5 (Herbicidal ratio of 90% or more (almost completely withered)). Also, the “G: Setaria viridis, herbicidal effect grade” value (shortened to “G: Setaria viridis”) in the data set with Setaria viridis (setting [5]) is 5 (Herbicidal ratio of 90% or more (almost completely withered)). The “I: Avena fatua, herbicidal effect grade” value in the data set with Avena fatua (setting [5]) is 4 (Herbicidal ratio of 70% or higher and lower than 90%). For the same compound, the “O: Chenopodium album, herbicidal effect grade” value with Chenopodium album (setting [5]) is 0 (Herbicidal ratio of 5% or lower (almost no effect)). For the same compound, the “f: beet, effect on crop grade” value in the data set on beet is listed as 0 (Herbicidal ratio of 5% or lower (almost no effect)). In addition, the “H: Echinochloa crus-galli var. crus-galli, herbicidal effect grade” value in [4] is 5 (Herbicidal ratio of 90% or more (almost completely withered)). The “L: Apera spica-venti, herbicidal effect grade” value with Apera spica-venti is 5 (Herbicidal ratio of 90% or more (almost completely withered)). In the data set on Abutilon theophrasti, the “M: Abutilon theophrasti, herbicidal effect grade” value was 5 (Herbicidal ratio of 90% or more (almost completely withered)). Further, the “c: corn, effect on crop grade” value in the data set with corn is listed as 5 (Herbicidal ratio of 90% or more (almost completely withered)). Moreover, the “d: soybean, effect on crop grade” value in the data set on soybean is 4 (Herbicidal ratio of 70% or higher and lower than 90%). In the data set with rapeseed, the “g: rapeseed, effect on crop grade” value is listed as 0 (Herbicidal ratio of 5% or lower (almost no effect)).
Turning to `CON=C(C)CC1CC(OC(=O)C(C)(C)c2ccc(Cl)cc2)=C(c2c(C)cc(C)cc2C)C1=O` (centres unmarked) [1-148], the “Herbicidal effect grade, C” value was 3 (Herbicidal ratio of 40% or higher and lower than 70%) with Monochoria vaginalis [1]; 4 (Herbicidal ratio of 70% or higher and lower than 90%) with Monochoria vaginalis [2]. For the same compound, the “effect on crop b” value in [3] is given as 5 (Herbicidal ratio of 90% or more (almost completely withered)). In the data set with Setaria viridis (320 g/ha), the “G: Setaria viridis” value is on record as 5 (Herbicidal ratio of 90% or more (almost completely withered)). Besides, in the data set on Avena fatua (320 g/ha), the “I: Avena fatua, herbicidal effect grade” value was 0 (Herbicidal ratio of 5% or lower (almost no effect)). The “O: Chenopodium album, herbicidal effect grade” value in the data set with Chenopodium album (320 g/ha) is 0 (Herbicidal ratio of 5% or lower (almost no effect)). Besides, in the data set with beet, the “f: beet, effect grade on crop” value is given as 0 (Herbicidal ratio of 5% or lower (almost no effect)). Besides, the “H: Echinochloa crus-galli var. crus-galli, herbicidal effect (criteria 0-5)” value in [4] was 5 (Herbicidal ratio of 90% or more (almost completely withered)). Also, the “L: Apera spica-venti, herbicidal effect (criteria 0-5)” value in the data set on Apera spica-venti is 5 (Herbicidal ratio of 90% or more (almost completely withered)). For the same compound, in the data set on Abutilon theophrasti, the “M: Abutilon theophrasti, herbicidal effect (criteria 0-5)” value is 4 (Herbicidal ratio of 70% or higher and lower than 90%). In addition, in the data set on corn, the “c: corn, effect on crop (criteria 0-5)” value was 4 (Herbicidal ratio of 70% or higher and lower than 90%). Besides, the “d: soybean, effect on crop (criteria 0-5)” value with soybean is 3 (Herbicidal ratio of 40% or higher and lower than 70%). Further, in the data set on rapeseed, the “g: rapeseed, effect on crop (criteria 0-5)” value was 5 (Herbicidal ratio of 90% or more (almost completely withered)).
With `CC(=O)C(C(C)=O)C1CC(O)=C(c2c(C)cc(C)cc2C)C1=O` (centres unmarked) [2-002], the “Herbicidal effect grade, C” value in the data set with Monochoria vaginalis [1] and in the data set with Monochoria vaginalis [2] was 0 (Herbicidal ratio of 5% or lower (almost no effect)) throughout. Further, the “effect on crop b” value in [3] was 0 (Herbicidal ratio of 5% or lower (almost no effect)). The “G: Setaria viridis” value in the data set on Setaria viridis (320 g/ha) is reported as 0 (Herbicidal ratio of 5% or lower (almost no effect)). Further, the “I: Avena fatua, herbicidal effect grade” value in the data set with Avena fatua (320 g/ha) is 0 (Herbicidal ratio of 5% or lower (almost no effect)). For the same compound, the “R: Veronica persica, herbicidal effect grade” value (from here on “R: Veronica persica”) in the data set with Veronica persica (320 g/ha) is 0 (Herbicidal ratio of 5% or lower (almost no effect)). Moreover, the “f: beet, effect grade on crop” value with beet was 0 (Herbicidal ratio of 5% or lower (almost no effect)). Also, the “H: Echinochloa crus-galli var. crus-galli, herbicidal effect grade” value in data set [4] was 3 (Herbicidal ratio of 40% or higher and lower than 70%). In addition, the “L: Apera spica-venti, herbicidal effect grade” value in the data set on Apera spica-venti is 2 (Herbicidal ratio of 20% or higher and lower than 40%). Besides, in the data set with Abutilon theophrasti, the “M: Abutilon theophrasti, herbicidal effect grade” value is 0 (Herbicidal ratio of 5% or lower (almost no effect)). Also, the “c: corn, effect on crop grade” value in the data set on corn was 0 (Herbicidal ratio of 5% or lower (almost no effect)). In addition, in the data set with soybean, the “d: soybean, effect on crop grade” value was 0 (Herbicidal ratio of 5% or lower (almost no effect)). Further, the “g: rapeseed, effect on crop grade” value in the data set on rapeseed is 3 (Herbicidal ratio of 40% or higher and lower than 70%).
`CCCC(=O)C(C(=O)OC)C1CC(O)=C(c2c(C)cc(C)cc2C)C1=O` (centres unmarked) [2-020]: the “Herbicidal effect grade, C” value in the data set with Monochoria vaginalis [1] and in the data set with Monochoria vaginalis [2] was 0 (Herbicidal ratio of 5% or lower (almost no effect)) each time. Also, the “effect on crop b” value in [3] was 2 (Herbicidal ratio of 20% or higher and lower than 40%). The “G: Setaria viridis” value in the data set with Setaria viridis (setting [5]) is reported as 5 (Herbicidal ratio of 90% or more (almost completely withered)). Further, in the data set on Avena fatua (setting [5]), the “I: Avena fatua, herbicidal effect grade” value is on record as 0 (Herbicidal ratio of 5% or lower (almost no effect)). Besides, the “R: Veronica persica” value in the data set with Veronica persica (setting [5]) is listed as 0 (Herbicidal ratio of 5% or lower (almost no effect)). Also, the “f: beet, effect on crop grade” value with beet is 0 (Herbicidal ratio of 5% or lower (almost no effect)). The “H: Echinochloa crus-galli var. crus-galli, herbicidal effect grade” value in [4] was 4 (Herbicidal ratio of 70% or higher and lower than 90%). The “L: Apera spica-venti, herbicidal effect grade” value with Apera spica-venti is given as 0 (Herbicidal ratio of 5% or lower (almost no effect)). In the data set on Abutilon theophrasti, the “M: Abutilon theophrasti, herbicidal effect grade” value is 0 (Herbicidal ratio of 5% or lower (almost no effect)). In the data set with corn, the “c: corn, effect on crop grade” value is 1 (Herbicidal ratio of 5% or higher and lower than 20%). In the data set with soybean, the “d: soybean, effect on crop grade” value is given as 0 (Herbicidal ratio of 5% or lower (almost no effect)). The “g: rapeseed, effect on crop grade” value in the data set on rapeseed was 0 (Herbicidal ratio of 5% or lower (almost no effect)).
With `Cc1cc(C)c(C2=C(O)CC(CC(=O)CC3CC3)C2=O)c(C)c1` (centres unmarked) [2-026], the “Herbicidal effect grade, C” value with Monochoria vaginalis [1] and with Monochoria vaginalis [2] was 0 (Herbicidal ratio of 5% or lower (almost no effect)) throughout. In data set [3], the “effect on crop b” value is recorded as 5 (Herbicidal ratio of 90% or more (almost completely withered)). Further, the “G: Setaria viridis” value in the data set with Setaria viridis (setting [5]) is listed as 5 (Herbicidal ratio of 90% or more (almost completely withered)). Also, in the data set with Avena fatua (setting [5]), the “I: Avena fatua, herbicidal effect grade” value is 0 (Herbicidal ratio of 5% or lower (almost no effect)). In the data set with Veronica persica (setting [5]), the “R: Veronica persica” value is reported as 0 (Herbicidal ratio of 5% or lower (almost no effect)). Further, the “f: beet, effect on crop grade” value in the data set on beet was 0 (Herbicidal ratio of 5% or lower (almost no effect)). In addition, the “H: Echinochloa crus-galli var. crus-galli, herbicidal effect grade” value in data set [4] was 4 (Herbicidal ratio of 70% or higher and lower than 90%). Further, the “L: Apera spica-venti, herbicidal effect grade” value with Apera spica-venti is 3 (Herbicidal ratio of 40% or higher and lower than 70%). Moreover, the “M: Abutilon theophrasti, herbicidal effect grade” value in the data set with Abutilon theophrasti is 0 (Herbicidal ratio of 5% or lower (almost no effect)). The “c: corn, effect on crop grade” value in the data set on corn is 2 (Herbicidal ratio of 20% or higher and lower than 40%). For the same compound, the “d: soybean, effect on crop grade” value in the data set with soybean is recorded as 0 (Herbicidal ratio of 5% or lower (almost no effect)). The “g: rapeseed, effect on crop grade” value in the data set on rapeseed was 3 (Herbicidal ratio of 40% or higher and lower than 70%).

The record behind these values is patent US11000033B2, “Ketone or oxime compound, and herbicide” (NISSAN CHEMICAL CORPORATION, priority 2014, dated 2021).
